Values belong to the compound of their own block, whether it stands above or below them. Residues, ends and D or L forms follow the SMILES beside them. *: point of attachment. Cbz = O=C(OCc1ccccc1)*
How the values were obtained:
Stromelysin-1 = Stromelysin-1 (Homo sapiens, UniProt P08254)
[1] = target: 72 kDa type IV collagenase (Homo sapiens, UniProt P08253)
Interstitial collagenase = target: T1, Interstitial collagenase (Homo sapiens, UniProt P03956)
T1 sequence (P03956 whole entry): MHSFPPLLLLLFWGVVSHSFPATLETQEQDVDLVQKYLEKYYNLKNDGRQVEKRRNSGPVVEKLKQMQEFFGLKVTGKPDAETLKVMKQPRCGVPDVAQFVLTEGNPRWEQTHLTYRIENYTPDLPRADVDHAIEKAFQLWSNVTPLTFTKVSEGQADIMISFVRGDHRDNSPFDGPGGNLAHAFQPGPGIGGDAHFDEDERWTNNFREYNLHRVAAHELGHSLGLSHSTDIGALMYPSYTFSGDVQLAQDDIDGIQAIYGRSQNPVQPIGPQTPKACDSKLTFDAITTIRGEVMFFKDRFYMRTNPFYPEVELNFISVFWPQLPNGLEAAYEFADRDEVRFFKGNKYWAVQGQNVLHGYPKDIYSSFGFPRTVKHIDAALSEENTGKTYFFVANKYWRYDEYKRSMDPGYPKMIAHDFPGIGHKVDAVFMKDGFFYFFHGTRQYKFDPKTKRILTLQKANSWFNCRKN

Procathepsin L [2] = target: T2, Procathepsin L (Homo sapiens, UniProt P07711); test: Inhibitory activity against cathepsin L, lysosomal cysteine protease
Cathepsin K = Cathepsin K (Homo sapiens, UniProt P43235); test: The apparent binding affinity against cathepsin K.; details: read-out: Ki app
Coagulation factor X = Coagulation factor X (Homo sapiens, UniProt P00742)
[3] = Oral bioavailability in human; assay type: ADME, organism-based; details: in vivo
Neprilysin = target: T3, Neprilysin (Rattus norvegicus, UniProt P07861)
T3 sequence (P07861 whole entry): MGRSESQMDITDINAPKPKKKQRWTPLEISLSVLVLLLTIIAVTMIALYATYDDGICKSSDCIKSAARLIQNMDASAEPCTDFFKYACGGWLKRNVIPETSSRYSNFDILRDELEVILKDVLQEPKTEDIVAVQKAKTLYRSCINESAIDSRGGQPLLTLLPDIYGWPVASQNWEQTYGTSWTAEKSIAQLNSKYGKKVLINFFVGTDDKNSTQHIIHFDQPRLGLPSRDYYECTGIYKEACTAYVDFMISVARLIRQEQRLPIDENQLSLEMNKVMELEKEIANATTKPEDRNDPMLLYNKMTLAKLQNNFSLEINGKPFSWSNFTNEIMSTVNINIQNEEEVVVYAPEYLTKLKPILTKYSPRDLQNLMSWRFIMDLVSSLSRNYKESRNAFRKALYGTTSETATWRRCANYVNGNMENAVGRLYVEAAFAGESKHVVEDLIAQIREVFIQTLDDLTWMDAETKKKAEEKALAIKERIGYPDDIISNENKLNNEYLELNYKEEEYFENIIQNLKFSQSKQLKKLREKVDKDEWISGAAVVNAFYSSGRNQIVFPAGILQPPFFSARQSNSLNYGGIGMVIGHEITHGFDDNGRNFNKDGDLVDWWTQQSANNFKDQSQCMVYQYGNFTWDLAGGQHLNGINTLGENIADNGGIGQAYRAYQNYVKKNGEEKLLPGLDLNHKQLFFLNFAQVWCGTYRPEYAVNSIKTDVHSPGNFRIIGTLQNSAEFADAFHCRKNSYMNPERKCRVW

[4] = target: Angiotensin-converting enzyme (Homo sapiens, UniProt P12821)
[5] = The irreversible inhibitor activity by second order rate equation.; assay type: ADME
[6] = Oral bioavailability in dog; assay type: ADME, organism-based, Canis lupus familiaris; details: in vivo
Serine protease 1 = Serine protease 1 (Homo sapiens, UniProt P07477)
Matrilysin = Matrilysin (Homo sapiens, UniProt P09237); test: Inhibition of matrix metalloprotease-7 (MMP-7).
Cathepsin B = Cathepsin B (Homo sapiens, UniProt P07858)
Procathepsin L [7] = target: T2, Procathepsin L

Sequence of Angiotensin-converting enzyme (P12821 whole entry): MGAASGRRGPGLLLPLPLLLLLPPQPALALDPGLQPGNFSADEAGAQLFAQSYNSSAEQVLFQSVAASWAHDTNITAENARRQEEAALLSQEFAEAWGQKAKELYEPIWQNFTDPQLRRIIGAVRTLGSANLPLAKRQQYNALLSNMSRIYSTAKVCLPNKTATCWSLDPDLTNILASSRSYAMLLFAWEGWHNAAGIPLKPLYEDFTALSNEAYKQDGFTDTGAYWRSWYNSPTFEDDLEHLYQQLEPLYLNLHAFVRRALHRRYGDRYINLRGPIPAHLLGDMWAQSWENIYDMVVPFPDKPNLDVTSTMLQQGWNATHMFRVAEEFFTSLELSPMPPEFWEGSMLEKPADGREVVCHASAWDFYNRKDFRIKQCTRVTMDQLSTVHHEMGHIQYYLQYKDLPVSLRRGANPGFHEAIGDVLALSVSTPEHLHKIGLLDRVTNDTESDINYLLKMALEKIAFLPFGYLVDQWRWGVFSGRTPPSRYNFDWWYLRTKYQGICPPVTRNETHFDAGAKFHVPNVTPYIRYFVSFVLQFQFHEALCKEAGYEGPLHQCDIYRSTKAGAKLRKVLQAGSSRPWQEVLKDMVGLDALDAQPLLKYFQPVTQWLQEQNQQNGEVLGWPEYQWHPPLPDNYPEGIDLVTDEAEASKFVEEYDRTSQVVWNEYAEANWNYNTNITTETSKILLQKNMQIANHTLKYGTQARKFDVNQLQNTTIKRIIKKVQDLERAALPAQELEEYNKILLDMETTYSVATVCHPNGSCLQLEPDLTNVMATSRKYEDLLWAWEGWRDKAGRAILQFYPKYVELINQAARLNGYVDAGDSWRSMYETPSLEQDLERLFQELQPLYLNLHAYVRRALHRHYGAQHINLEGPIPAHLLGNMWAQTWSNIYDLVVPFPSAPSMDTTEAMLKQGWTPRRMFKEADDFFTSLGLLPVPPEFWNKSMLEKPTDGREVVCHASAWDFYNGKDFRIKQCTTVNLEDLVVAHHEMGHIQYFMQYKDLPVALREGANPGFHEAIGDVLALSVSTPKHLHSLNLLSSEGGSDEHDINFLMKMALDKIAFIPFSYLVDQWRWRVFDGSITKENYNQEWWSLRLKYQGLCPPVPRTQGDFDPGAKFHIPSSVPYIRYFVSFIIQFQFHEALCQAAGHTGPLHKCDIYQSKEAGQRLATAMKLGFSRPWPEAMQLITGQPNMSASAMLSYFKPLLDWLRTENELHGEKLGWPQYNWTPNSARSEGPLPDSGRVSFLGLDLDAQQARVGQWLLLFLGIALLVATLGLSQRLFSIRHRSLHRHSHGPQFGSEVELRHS
Sequence of Stromelysin-1 (P08254 whole entry): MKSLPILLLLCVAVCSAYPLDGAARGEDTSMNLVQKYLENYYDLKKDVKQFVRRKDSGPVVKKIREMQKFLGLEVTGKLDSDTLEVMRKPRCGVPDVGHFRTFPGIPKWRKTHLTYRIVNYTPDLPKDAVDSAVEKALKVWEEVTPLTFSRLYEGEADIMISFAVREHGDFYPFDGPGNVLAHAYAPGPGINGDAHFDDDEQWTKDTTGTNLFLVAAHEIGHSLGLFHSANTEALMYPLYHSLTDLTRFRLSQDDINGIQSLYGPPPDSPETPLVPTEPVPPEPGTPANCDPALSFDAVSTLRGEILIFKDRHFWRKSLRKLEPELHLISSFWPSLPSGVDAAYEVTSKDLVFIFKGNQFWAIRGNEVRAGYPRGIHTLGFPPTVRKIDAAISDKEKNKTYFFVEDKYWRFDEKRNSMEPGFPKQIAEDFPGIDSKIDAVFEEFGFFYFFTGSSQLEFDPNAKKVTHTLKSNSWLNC
T2 sequence (P07711 whole entry): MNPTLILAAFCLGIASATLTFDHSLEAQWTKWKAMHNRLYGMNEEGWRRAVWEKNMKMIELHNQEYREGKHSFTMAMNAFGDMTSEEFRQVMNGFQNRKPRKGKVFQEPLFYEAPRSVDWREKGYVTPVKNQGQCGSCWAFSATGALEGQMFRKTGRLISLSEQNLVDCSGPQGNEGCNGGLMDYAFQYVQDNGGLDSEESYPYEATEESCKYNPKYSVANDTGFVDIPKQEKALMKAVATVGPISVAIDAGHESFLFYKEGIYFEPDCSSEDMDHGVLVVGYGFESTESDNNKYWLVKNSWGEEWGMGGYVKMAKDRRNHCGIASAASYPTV
Sequence of 72 kDa type IV collagenase (P08253 whole entry): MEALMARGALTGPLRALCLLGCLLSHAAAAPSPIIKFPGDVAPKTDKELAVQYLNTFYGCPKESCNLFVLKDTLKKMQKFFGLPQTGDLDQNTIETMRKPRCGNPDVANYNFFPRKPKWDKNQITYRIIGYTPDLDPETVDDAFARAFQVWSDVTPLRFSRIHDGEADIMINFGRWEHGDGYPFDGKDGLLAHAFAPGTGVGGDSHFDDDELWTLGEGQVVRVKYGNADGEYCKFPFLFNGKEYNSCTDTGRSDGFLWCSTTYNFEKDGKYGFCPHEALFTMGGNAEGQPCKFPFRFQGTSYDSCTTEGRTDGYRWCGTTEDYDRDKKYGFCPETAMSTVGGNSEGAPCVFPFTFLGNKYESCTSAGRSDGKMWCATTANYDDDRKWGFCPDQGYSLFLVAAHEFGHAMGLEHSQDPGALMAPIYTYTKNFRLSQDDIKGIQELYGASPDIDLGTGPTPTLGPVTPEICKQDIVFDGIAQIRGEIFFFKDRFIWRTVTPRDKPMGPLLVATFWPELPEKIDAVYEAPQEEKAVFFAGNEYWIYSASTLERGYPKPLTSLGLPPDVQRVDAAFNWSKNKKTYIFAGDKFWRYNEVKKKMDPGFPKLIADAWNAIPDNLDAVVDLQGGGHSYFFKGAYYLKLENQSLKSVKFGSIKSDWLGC
Sequence of Matrilysin (P09237 whole entry): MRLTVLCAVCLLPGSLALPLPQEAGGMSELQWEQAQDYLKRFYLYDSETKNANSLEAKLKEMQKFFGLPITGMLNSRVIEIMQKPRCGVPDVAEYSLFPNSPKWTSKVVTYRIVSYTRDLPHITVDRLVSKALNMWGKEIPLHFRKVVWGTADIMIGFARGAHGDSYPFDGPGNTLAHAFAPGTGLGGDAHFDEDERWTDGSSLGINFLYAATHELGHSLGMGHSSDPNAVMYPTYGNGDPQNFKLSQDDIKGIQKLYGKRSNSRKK
Sequence of Cathepsin K (P43235 whole entry): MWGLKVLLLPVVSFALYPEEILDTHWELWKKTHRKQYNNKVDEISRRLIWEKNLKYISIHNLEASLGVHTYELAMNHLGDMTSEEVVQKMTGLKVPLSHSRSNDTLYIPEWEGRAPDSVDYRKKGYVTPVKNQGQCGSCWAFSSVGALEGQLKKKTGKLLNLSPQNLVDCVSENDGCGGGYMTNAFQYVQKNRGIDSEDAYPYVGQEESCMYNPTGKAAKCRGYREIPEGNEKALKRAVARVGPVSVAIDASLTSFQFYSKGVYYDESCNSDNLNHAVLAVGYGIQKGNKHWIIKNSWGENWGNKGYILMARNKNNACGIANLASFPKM
Sequence of Coagulation factor X (P00742 41-179 limits assumed): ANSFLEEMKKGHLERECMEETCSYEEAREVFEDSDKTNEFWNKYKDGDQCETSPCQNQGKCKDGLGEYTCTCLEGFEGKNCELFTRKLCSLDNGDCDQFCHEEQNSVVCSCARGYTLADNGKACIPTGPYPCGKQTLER
Sequence of Coagulation factor X (P00742 235-488 limits assumed): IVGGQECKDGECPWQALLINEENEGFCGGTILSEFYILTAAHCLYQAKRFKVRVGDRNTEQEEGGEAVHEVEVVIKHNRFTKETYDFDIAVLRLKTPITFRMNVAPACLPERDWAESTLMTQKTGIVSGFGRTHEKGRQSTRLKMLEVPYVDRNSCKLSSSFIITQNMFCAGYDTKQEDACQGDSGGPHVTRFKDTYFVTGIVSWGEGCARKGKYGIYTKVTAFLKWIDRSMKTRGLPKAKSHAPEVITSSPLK
Sequence of Serine protease 1 (P07477 whole entry): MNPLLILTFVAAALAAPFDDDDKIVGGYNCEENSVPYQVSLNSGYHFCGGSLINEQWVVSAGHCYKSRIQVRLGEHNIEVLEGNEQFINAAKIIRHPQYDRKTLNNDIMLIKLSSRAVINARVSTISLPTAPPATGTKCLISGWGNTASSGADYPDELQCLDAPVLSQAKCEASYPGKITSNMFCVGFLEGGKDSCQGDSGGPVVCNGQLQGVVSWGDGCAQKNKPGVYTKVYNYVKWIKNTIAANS

Ki (Stromelysin-1): < 1 nM
Ki [1]: < 3 nM
Ki (Interstitial collagenase): < 1 nM
SMILES: CNC(=O)[C@@H]1CCCCN(C(=O)OC(C)(C)C)CCC[C@H](C(=O)NO)[C@@H](CC(C)C)C(=O)N1

IC50 (Procathepsin L [2]): 0.74 nM
SMILES: O=CC(Cc1ccccc1)NC(=O)C(Cc1ccccc1)NC(=O)OCc1ccccc1 (stereo not drawn) (Cbz-Phe-Phe-aldehyde; configuration not given here)

Ki (Cathepsin K): 1.4 nM
SMILES: CC(C)C[C@@H](C=O)NC(=O)[C@H](CC(C)C)NC(=O)[C@H](CC(C)C)NC(=O)OCc1ccccc1 [MG-132] (Cbz-Leu-Leu-Leu-aldehyde)

Ki [1]: 3000 nM
SMILES: CNC(=O)[C@@H](Cc1c(F)c(F)c(F)c(F)c1F)NC(=O)Nc1nnc(S)s1

IC50 (Coagulation factor X): 30 nM
SMILES: COC(=O)[C@H](Cc1cccc(C(=N)N)c1)[C@@H](/C=C/c1ccccc1)NC(=O)c1ccc(-c2ccc(OC)c(OC)c2)cc1

bioavailability [3]: < 1%
SMILES: CCCCNC(=O)[C@@H](C[C@H](O)[C@H](CC1CCCCC1)NC(=O)[C@H](Cc1c[nH]cn1)NC(=O)[C@H](Cc1ccccc1)CS(=O)(=O)C(C)(C)C)C(C)C

Ki (Stromelysin-1): 30 nM
Ki (Interstitial collagenase): > 30000 nM
SMILES: CNC(=O)[C@@H](NC(=O)[C@H](CCCCOc1ccccc1)CP(=O)(O)Cc1ccc(Cc2ccccc2)cc1)C(C)(C)C

IC50 (Neprilysin): 63 nM
IC50 [4]: 12 nM
SMILES: CC1(C)CCCC(NC(=O)[C@@H](S)Cc2ccccc2)C(=O)N1CC(=O)O (some centres undefined)

K second [5]: 5.7 M⁻¹ s⁻¹
SMILES: CC(C)C[C@H](NC(=O)N1CCNCC1)C(=O)N[C@H](C/C=C/S(=O)(=O)c1ccccc1)CCc1ccccc1

IC50 [4]: 19 nM
SMILES: CCCCc1nc(Cl)c(CO)n1Cc1ccc(-c2ccccc2-c2nn[nH]n2)cc1 [LOSARTAN]

bioavailability [6]: 90%
SMILES: NC1CCC(CNC(=O)[C@@H]2CCCN2C(=O)[C@H](N)C(C2CCCCC2)C2CCCCC2)CC1 (some centres undefined)

IC50 [4]: 1 nM
SMILES: CCC(=O)O[C@@H](O[P@](=O)(CCCCc1ccccc1)CC(=O)N1C[C@H](C2CCCCC2)C[C@H]1C(=O)O)C(C)C [FOSINOPRIL]

IC50 [4]: 4 nM
SMILES: CCOC(=O)[C@H](CCc1ccccc1)N[C@@H](C)C(=O)N1[C@H](C(=O)O)C[C@@H]2CCC[C@@H]21

Ki (Serine protease 1): 0.46 nM
bioavailability [6]: 45%
SMILES: CC1=CCN(C(=O)[C@H](Cc2ccc(C(=N)N)cc2)NS(=O)(=O)c2ccc3c(c2)CN(C)CC3)[C@@H](C(=O)O)C1

Ki (Stromelysin-1): 9.3 nM
Ki (Interstitial collagenase): 590 nM
Ki (Matrilysin): 1200 nM
SMILES: O=C(NO)C1(CS(=O)(=O)c2ccc(Oc3ccc(Cl)cc3)cc2)CCOCC1 [CTS-1027]

Ki (Cathepsin B): > 1000 nM
Ki (Procathepsin L [7]): > 1000 nM
SMILES: CC(C)C[C@H](NC(=O)OCc1ccccc1)C(=O)NC1CCN(S(=O)(=O)c2ccc(Oc3ccccc3)cc2)CC1=O (some centres undefined)

Reference: ChEMBL document CHEMBL1133572, “Protease inhibitors: current status and future prospects” (J Med Chem, 2000)
